Laboratory results: patent publication US10456404B2, “Targeting cGMP-related phosphodiesterases to reduce cyst formation in cystic kidney disease, and related materials and methods” (Indiana University Research and Technology Corporation, priority 2015, dated 2019)
Read-outs that look alike come from different tables or passages of the source.

What was measured:
other PDEs = settings: cited from earlier work
human PDE9 = human PDE9 (Homo sapiens, UniProt O76083); settings: cited from earlier work
Chain of human PDE9 (O76083 whole entry): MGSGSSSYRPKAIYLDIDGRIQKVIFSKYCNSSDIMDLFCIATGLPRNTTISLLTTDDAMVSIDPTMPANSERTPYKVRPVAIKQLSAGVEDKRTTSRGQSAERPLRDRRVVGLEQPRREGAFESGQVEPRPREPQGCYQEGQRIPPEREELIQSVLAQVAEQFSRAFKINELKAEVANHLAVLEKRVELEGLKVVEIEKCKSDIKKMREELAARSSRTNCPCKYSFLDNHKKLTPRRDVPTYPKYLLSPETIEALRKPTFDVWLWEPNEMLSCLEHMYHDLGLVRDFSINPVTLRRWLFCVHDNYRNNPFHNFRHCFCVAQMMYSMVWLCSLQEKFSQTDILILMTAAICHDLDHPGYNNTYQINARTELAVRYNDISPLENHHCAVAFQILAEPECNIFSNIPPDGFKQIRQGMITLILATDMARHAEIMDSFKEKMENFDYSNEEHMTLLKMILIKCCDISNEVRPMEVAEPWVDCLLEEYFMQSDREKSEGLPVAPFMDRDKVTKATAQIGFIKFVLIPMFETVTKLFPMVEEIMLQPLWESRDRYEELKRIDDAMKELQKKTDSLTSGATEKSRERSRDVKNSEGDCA

PDE5 = PDE5 (Homo sapiens, UniProt O76074); settings: cited from earlier work
cGMP = settings: in vivo; cited from earlier work
[1] = tested on: preclinical cognition models; settings: in vivo; cited from earlier work
[2] = tested on: amyloid precursor protein overexpressing transgenic mice; settings: cited from earlier work
PDE6 = settings: cited from earlier work
[3] = tested on: Telomerase immortalized polycystic kidney cells; test: cyst formation by immortalized polycystic kidney cells in 3D forskolin-supplemented Matrigel culture; type: cell-based, human; settings: for average cyst area vs vehicle sham-treated matched control: FIG. 1
[4] = tested on: Telomerase immortalized polycystic kidney cells; test: as above; type: cell-based, human
From the text: Telomerase immortalized polycystic kidney cells, as described in Herbert et al. (PLoS One (2013), 8(1): e55191; which is hereby incorporated by reference in its entirety), were used to test the effect of sildenafil citrate on renal cyst growth. Cells from polycystic kidneys removed from patients for medically indicated reasons, removed from any research program, were obtained. The cells were obtained from the pathology laboratory. Cyst tissue was microdissected from the kidneys, and cells were isolated and grown in primary culture. The cells were then immortalized using retroviral techniques well known in the art. Following confirmation of an immortal phenotype, it was established that the polycystic cyst epithelial cells formed cyst structures when grown in 3D forskolin-supplemented Matrigel culture. Immortalized polycystic kidney cells were treated with microgram dosages of sildenafil citrate of 4 μg/ml, 2 μg/ml, and 1 μg/ml. […] Matched controls were sham-treated with vehicle but no drug. […] Dosages tested were consistent with the range of serum drug levels that occur when the drug is prescribed for erectile dysfunction.

In the case of `C[C@H](Cc1nc2c(cnn2-c2ccccc2Cl)c(=O)[nH]1)C(F)(F)F` [BAY 73-6691, 1-(2-chlorophenyl)-6-[(2R)-3,3,3-trifluoro-2-methylpropyl]-1,5-dihydro-4H-pyrazolo[3,4-d]pyrimidine-4-one], the “activity against other PDEs” value (other PDEs) is given as “only moderate activity” and the “inhibition of human PDE9 activity in vitro” value (human PDE9) is given as “selectively inhibit”.
In the case of `CCCc1nc(C)c2c(=O)[nH]c(-c3cc(S(=O)(=O)N4CCNCC4)ccc3OCC)nn12` [M1], the “PDE5 inhibition potency relative to the parent drug” value (PDE5; parent drug vardenafil) is given as “reduced potency”.
In the case of `C[C@@H]1CN(Cc2ncccn2)C[C@H]1c1nc2c(cnn2C2CCOCC2)c(=O)[nH]1` [PF-04447943, 6-[(3S,4S)-4-methyl-1-(pyrimidin-2-ylmethyl)pyrrolidin-3-yl]-1-(tetrahydro-2H-pyran-4-yl)-1,5-dihydro-4H-pyrazolo[3,4-d]pyrimidin-4-one], the “cGMP in brain and cerebrospinal fluid” value (cGMP) is given as “elevates”, the “memory in preclinical cognition models” value [1] is given as “improves” and the synaptic plasticity [1] is given as “enhances”. For the same compound, the “decreases in dendritic spine density” value [2] was “prevents”.
In the case of `CCCc1nn(C)c2c(=O)[nH]c(-c3cc(S(=O)(=O)N4CCNCC4)ccc3OCC)nc12` [UK-103,320], the “PDE5 inhibition potency relative to the parent drug” value (PDE5; parent drug sildenafil) is given as “approximately 50%”.
In the case of `CCCc1nc(C)c2c(=O)nc(-c3cc(S(=O)(=O)N4CCN(CC)CC4)ccc3OCC)[nH]n12` [Vardenafil, 2-[2-ethoxy-5-(4-ethylpiperazin-1-yl)sulfonylphenyl]-5-methyl-7-propyl-1H-imidazo[5,1-f][1,2,4]triazin-4-one], the PDE6 inhibition (PDE6) is listed as “potent PDE6 inhibitor”.
In the case of `CCCOc1ccccc1-c1nc2[nH][nH]nc-2c(=O)n1` [Zaprinast, 5-(2-propoxyphenyl)-2,3-dihydrotriazolo[4,5-d]pyrimidin-7-one], the “PDE6 versus PDE5 inhibition potency” value (PDE6) is given as “inhibit PDE6 more potently than PDE5”.
For `CCCc1nn(C)c2c(=O)[nH]c(-c3cc(S(=O)(=O)N4CCN(C)CC4)ccc3OCC)nc12.O=C(O)CC(O)(CC(=O)O)C(=O)O` [sildenafil citrate, 1-[[3-(6,7-dihydro-1-methyl-7-oxo-3-propyl-1H-pyrazolo[4,3-d]pyrimidin-5-yl)-4-ethoxyphenyl]sulfonyl]-4-methylpiperazine citrate], the “average cyst area vs vehicle sham-treated matched control” value ([3]; 250 ng/ml, p<1.05 E−8) was “significantly reduced”, the “average cyst area vs vehicle sham-treated matched control” value ([3]; 500 ng/ml, p<0.01) was “significantly reduced” and the “dose response of cyst area reduction” value ([3]; 250, 500, 1000 ng/ml) was “No dose response”. For the same compound, the “large cyst formation (cyst structures of greater than 150μ^2), frequency distribution” value ([3]; 250, 500, 1000 ng/ml, FIG. 2) was “completely inhibited”, the “Average cyst size compared to control” value ([4]; 1 μg/ml, p<0.01) was “significantly decreased” and the “average cyst area vs vehicle sham-treated matched control” value ([4]; 1000 ng/ml, p<0.01, FIG. 1) was “significantly reduced”. The “Average cyst size compared to control” value ([4]; 2 μg/ml, p<0.01) was “significantly decreased” and the “Average cyst size compared to control” value ([4]; 4 μg/ml, p<1 E−6) was “significantly decreased”.
For `CCCc1nn(C)c2c(=O)[nH]c(-c3cc(S(=O)(=O)N4CCN(C)CC4)ccc3OCC)nc12` [sildenafil, 5[2-ethoxy-5-(4-methyl-1-piperazinyl-sulphonyl)phenyl]-1-methyl-3-n-propyl-1,6-dihydro-7H-pyrazolo[4,3-d]pyrimidin-7-one], the “large cysts in photographs” value ([4]; 1:250 dilution of drug in vehicle from a stock, FIG. 3B) was “No large cysts were observed”, the “large cysts in photographs” value ([4]; 1:500 dilution of drug in vehicle from a stock, FIG. 4B) was “No large cysts were observed” and the “large cysts in photographs” value ([4]; 1:1000 dilution of drug in vehicle from a stock, FIG. 5B) was “No large cysts were observed”.
